Source: ChEMBL document CHEMBL1155573, “Aristolactams and dioxoaporphines from Fissistigma balansae and Fissistigma oldhamii” (2000)

What was measured:
Assay type in all cases: functional
Conditions in all cases: Oryctolagus cuniculus
Platelet [1] = test: Inhibition of thrombin-induced rabbit platelet aggregation at 100 ug/ml
Platelet [2] = test: Inhibition of collagen-induced rabbit platelet aggregation at 100 ug/ml
Platelet [3] = test: Inhibition of collagen-induced rabbit platelet aggregation at 50 ug/ml
Platelet [4] = test: Inhibition of arachidonic acid-induced rabbit platelet aggregation at 100 ug/ml
Platelet [5] = test: Inhibition of platelet-activating factor-induced rabbit platelet aggregation at 100 ug/ml
Platelet [6] = test: Inhibition of arachidonic acid-induced rabbit platelet aggregation at 50 ug/ml
Platelet [7] = test: Inhibition of arachidonic acid-induced rabbit platelet aggregation at 10 ug/ml
Platelet [8] = test: Inhibition of collagen-induced rabbit platelet aggregation at 20 ug/ml
Platelet [9] = test: Inhibition of collagen-induced rabbit platelet aggregation at 10 ug/ml
Platelet [10] = test: Inhibition of arachidonic acid-induced rabbit platelet aggregation at 20 ug/ml

| Compound | inhibition at 100 µg/mL (Platelet [1]) | inhibition at 100 µg/mL (Platelet [2]) | inhibition at 50 µg/mL (Platelet [3]) | inhibition at 100 µg/mL (Platelet [4]) | inhibition at 100 µg/mL (Platelet [5]) | inhibition at 50 µg/mL (Platelet [6]) | inhibition at 10 µg/mL (Platelet [7]) | inhibition at 20 µg/mL (Platelet [8]) | inhibition at 10 µg/mL (Platelet [9]) | inhibition at 20 µg/mL (Platelet [10]) |
| --- | --- | --- | --- | --- | --- | --- | --- | --- | --- | --- |
| COc1ccc2cc3c4c(cc(OC)c(OC)c4c2c1)C(=O)N3 [ARISTOLACTAM BIII] | 89.3% | 0% | 59.1% | 71.9% | 60.6% | 86.6% |  |  |  |  |
| COc1c(O)c(OC)c2c3c(cc4ccccc42)NC(=O)c13 [ARISTOLACTAM F II] | 83.9% | 9.7% | 14.5% | 8.5% | 6.7% | 16.5% | 85.4% | 81.7% | 81.7% | 52.5% |
| CC(=O)Oc1ccccc1C(=O)O [ASPIRIN] |  | 87.8% |  | 0% | 90.4% |  |  |  |  |  |
| COc1cc2c3c(cc4ccc(O)cc4c3c1OC)NC2=O [GONIOTHALACTAM] | 89.8% | 10.5% | 17.3% | 13.6% | 67.3% | 50.4% | 85.9% | 75.9% | 83% | 81.6% |
| COc1c(O)cc2c3c(cc4ccccc4c13)NC(=O)C2=O [NORARISTOLODIONE] | 88.7% | 40.6% | 72% | 65.8% | 82.5% |  |  | 84.7% |  |  |
| COc1c(O)cc2c3c(cc4ccccc4c13)NC2=O [ARISTOLACTAM AII] | 90% | 82.5% |  | 86.3% | 78.3% |  |  |  |  |  |
| COc1cc2c3c(cc4ccccc4c3c1O)NC2=O [PIPEROLACTAM A] | 84.3% | 0% | 22.2% | 0% | 84.1% | 14.7% |  | 84.2% |  | 83.5% |
| COc1cccc2c1c(OC)c1c3c(cc(O)c(OC)c32)C(=O)N1 [ENTEROCARPAM I] | 86.5% | 43% | 25.8% | 2.2% | 70.8% | 13.5% | 83.5% | 72.9% | 83.7% | 46.4% |
| COc1cc2c3c(cc4c(O)cccc4c3c1OC)NC2=O [VELUTINAM] | 92.1% | 18.4% | 65.4% | 37.5% | 87.3% | 77.5% |  |  |  |  |
| COc1c(OC)c(OC)c2c3c(cc4ccc(O)cc42)NC(=O)c13 [STIGMALACTAM] | 91.9% | 10.1% | 30.8% | 14.2% | 70.8% | 18.8% |  | 72.9% |  | 46.4% |
| COc1c(O)cc2c3c(cc4ccc(O)cc4c13)NC2=O [ARISTOLACTAM AIIIA] | 90.6% | 39.6% |  | 56.9% | 80.7% |  |  |  |  |  |
| COc1c(OC)c(OC)c2c3c(cc4ccccc42)NC(=O)c13 [PIPEROLACTAM C] | 83.7% | 0% | 82% | 7.8% | 6.1% | 89.4% |  |  |  |  |
